Literature values in patent US20240294879A1, “STEM CELL DIFFERENTIATION AND POLYMERS” (VERTEX PHARMACEUTICALS INCORPORATED, priority 2021, published 2024).

Molecular target: EZH2 (Homo sapiens, UniProt Q15910)
Sequence (Q15910 whole entry, species assumed): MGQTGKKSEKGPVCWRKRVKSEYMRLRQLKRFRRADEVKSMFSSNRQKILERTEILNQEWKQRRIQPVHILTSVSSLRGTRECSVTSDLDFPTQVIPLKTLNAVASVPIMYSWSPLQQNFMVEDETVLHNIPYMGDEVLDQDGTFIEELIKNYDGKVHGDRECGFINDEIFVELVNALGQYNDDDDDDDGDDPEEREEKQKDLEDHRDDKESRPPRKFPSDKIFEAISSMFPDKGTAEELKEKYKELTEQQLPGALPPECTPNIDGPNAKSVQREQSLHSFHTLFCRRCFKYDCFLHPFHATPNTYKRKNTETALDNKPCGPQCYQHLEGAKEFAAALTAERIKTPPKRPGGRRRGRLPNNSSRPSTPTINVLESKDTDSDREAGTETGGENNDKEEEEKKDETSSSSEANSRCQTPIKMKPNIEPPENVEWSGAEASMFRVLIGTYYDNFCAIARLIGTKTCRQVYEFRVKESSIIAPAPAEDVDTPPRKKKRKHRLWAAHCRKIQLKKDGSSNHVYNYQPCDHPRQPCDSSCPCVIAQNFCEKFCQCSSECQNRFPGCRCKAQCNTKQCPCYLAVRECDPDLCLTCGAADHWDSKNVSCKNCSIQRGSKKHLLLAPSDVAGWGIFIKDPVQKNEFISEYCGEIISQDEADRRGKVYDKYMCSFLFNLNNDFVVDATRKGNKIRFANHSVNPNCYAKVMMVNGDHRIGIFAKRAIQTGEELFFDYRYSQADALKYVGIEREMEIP
Sequence (O75530 whole entry partner, species assumed): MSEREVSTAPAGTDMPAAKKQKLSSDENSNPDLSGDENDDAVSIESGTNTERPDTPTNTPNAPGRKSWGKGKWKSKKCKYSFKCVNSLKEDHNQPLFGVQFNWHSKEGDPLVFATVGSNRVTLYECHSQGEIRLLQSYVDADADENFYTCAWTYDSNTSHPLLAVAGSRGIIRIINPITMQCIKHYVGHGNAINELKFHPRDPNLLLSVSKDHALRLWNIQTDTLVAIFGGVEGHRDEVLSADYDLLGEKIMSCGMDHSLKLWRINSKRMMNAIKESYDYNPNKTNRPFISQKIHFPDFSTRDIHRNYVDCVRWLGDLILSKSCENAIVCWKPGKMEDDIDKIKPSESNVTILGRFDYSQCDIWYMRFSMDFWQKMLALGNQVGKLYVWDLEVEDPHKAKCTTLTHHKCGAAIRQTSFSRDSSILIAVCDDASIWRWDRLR
Sequence (Q15022 whole entry partner, species assumed): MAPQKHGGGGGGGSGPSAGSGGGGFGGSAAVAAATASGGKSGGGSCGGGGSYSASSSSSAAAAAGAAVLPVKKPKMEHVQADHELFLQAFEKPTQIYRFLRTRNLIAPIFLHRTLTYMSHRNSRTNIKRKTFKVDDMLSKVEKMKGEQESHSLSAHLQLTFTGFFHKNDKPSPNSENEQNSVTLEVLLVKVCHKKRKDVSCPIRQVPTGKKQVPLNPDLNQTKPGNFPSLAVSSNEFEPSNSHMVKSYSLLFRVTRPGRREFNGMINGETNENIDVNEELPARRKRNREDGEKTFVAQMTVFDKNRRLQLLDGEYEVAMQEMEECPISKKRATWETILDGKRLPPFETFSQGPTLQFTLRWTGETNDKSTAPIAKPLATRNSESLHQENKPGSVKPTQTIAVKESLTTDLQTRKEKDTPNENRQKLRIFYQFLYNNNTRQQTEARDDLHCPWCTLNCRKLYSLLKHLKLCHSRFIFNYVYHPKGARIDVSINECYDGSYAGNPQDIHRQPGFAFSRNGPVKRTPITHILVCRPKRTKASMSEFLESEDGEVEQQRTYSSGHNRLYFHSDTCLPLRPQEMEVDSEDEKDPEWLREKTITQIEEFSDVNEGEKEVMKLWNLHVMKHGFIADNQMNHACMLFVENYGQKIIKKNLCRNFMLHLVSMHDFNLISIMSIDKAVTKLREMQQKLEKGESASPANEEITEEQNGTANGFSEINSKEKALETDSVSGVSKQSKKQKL

selectivity over EZH1 (EZH2 versus EZH1) [fold]	selectivity relative to GSK126 (EZH2 inhibitor)	Compound
150		CC[C@H](C)n1cc(C)c2c(C(=O)NCc3c(C)cc(C)[nH]c3=O)cc(-c3ccc(N4CCNCC4)nc3)cc21 [GSK126]
	less selective	CCCc1cc(C)[nH]c(=O)c1CNC(=O)c1cc(-c2ccc(N3CCN(C(C)C)CC3)nc2)cc2c1cnn2C(C)C [UNC1999]
